# Laboratory results taken from patent US20140221301A1, “COMBINATION TREATMENT FOR CANCER” (priority 2011, published 2014).
# Experiments:
# myeloma cell lines = assay: Cell growth and viability, MTS assay, myeloma cell lines; assay type: cell-based; conditions: 72 hours
# Procedure: (§1) FIG. 1. […] (A) TEX and (B) M9-ENL1 cells were plated in 96-well plates and drugs were added to the wells (5 μL per well) for final concentrations of 10 μM (shown) and 1 μM. Cell growth and viability was measured at 48 hours (M9-ENL-1) and 72 hours (TEX) by MTS assay. Cell viability is shown for each compound as a percent of cells treated with DMSO alone. (C) Leukemia, (D) myeloma, and (E) solid tumor cell lines were seeded in 96-well plates and then treated with increasing concentrations of tigecycline. Cell growth and viability was measured at 72 hours by MTS assay. Cell viability is expressed as mean percentage plus or minus SD (n=3) relative to vehicle-treated cells. […] Cell viability was measured at 72 hours by MTS assay. Cell viability is expressed as mean percentage plus or minus SD (n=3) relative to vehicle-treated cells.
# Human leukemia (OCI-AML2, HL60, U937) cell lines were maintained in RPMI 1640 medium. Myeloma (LP-1, KMS11, 8226, JJN3, OP-M2) cell lines were maintained in Iscove's media. […]
# (§2) Cell growth and viability was assessed by the MTS assay (Promega, Madison, Wis.) according to the manufacturer's instructions. Apoptosis and cell death was measured by Annexin V-fluroscein isothiocyanate (FITC; Biovision Research Products, Mountain View, Calif.), propidium iodide staining and flow cytometry according to the manufacturer's instructions and as previously described^30.
# M9-ENL1 cells = assay: Chemical screen, MTS assay, M9-ENL1 cells; assay type: cell-based, human; conditions: 10 μM, 48 hours
# Description: To identify compounds active against leukemia stem cells, a library of drugs (n=312) with well-characterized pharmacokinetics and toxicology and a wide therapeutic window was compiled. This library was then screened to identify agents that reduced the viability of TEX and M9-ENL1 cells. TEX and M9-ENL1 cells were derived from lineage-depleted human cord blood cells (Lin-CB) transduced with TLS-ERG or MLL-ENL oncogenes, respectively, and, as shown previously, display properties of stem cells including hierarchal differentiation and marrow repopulation^14, 15. In this screen, TEX and M9-ENL1 cells were treated with aliquots of the compounds. After incubation, cell growth and viability was measured by the MTS assay. From this screen, tigecycline was identified.
# TEX, and M9-ENL-1 cells were seeded into 96-well polystyrene tissue culture plates (Corning). […] 72 (TEX) and 48 (M9-ENL-1) hours after incubation, cell growth and viability was measured by MTS assay. […]
# as §2, with “described^30. […]” for “described^30.”
# [1] = test system: bacterial protein synthesis; conditions: cited from earlier work
# TEX cells = assay: Apoptosis by Annexin V flow cytometry in TEX cells; assay type: cell-based, human; conditions: over time
# Procedure: as §1, §2
# complex II = assay: Respiratory chain enzyme activity relative to citrate synthase, complex II; assay type: cell-based, human; conditions: TEX cells, 2.5 μM and 5 μM, 72 hours
# Procedure: FIG. 4. Tigecycline decreases mitochondrial Cox-1 protein levels in TEX cells. (A) Cells from TEX, OCI-AML2 and two primary AML patients were treated with increasing concentrations (2.5 μM and 5 μM) of tigecycline for 36 and 48 hours of tigecycline. Total proteins were extracted and analyzed by western blotting for Cox-1, Cox-2, Cox-4, grp78, XIAP, actin and tubulin. (B) TEX and AML patient cells were treated with increasing concentrations (2.5 μM and 5 μM) of tigecycline. Cox-1, Cox-2, and Cox-4 mRNA expression relative 18S was determined by quantitative RT-PCR. Data is shown as mean±SD. (C) TEX cells were treated with increasing concentrations of tigecycline and chloramphenicol (CAP) for 72 hours. Complex I, II and IV enzyme activity relative to citrate synthase activity was determined as described in materials and methods. […] Mitochondrial membrane potential (ΔΨ) was determined by staining cells with JC-1 dye, and flow cytometry analysis (Red/Green ratio). Reactive oxygen species generation (ROS) was determined by staining with h2-DCFDA and Dihydroethidium (DHE).
# The effect of tigecycline treatment on enzyme activity of the respiratory chain complexes relative to the mitochondrial non-respiratory chain enzyme citrate synthase was examined. TEX leukemia cells were treated with tigecycline for […] and then respiratory chain enzyme relative to citrate synthase activity was analyzed. […]
compound,measurement,setting,value
CN(C)c1cc(NC(=O)CNC(C)(C)C)c(O)c2c1C[C@H]1C[C@H]3[C@H](N(C)C)C(O)=C(C(N)=O)C(=O)[C@@]3(O)C(O)=C1C2=O [tigecycline],IC50,myeloma cell lines,> 10 µM
same,cell growth and viability in screen,M9-ENL1 cells,cell growth inhibitor
same,"inhibition of bacterial protein synthesis, fold greater than minocycline",[1]; relative to minocycline,3 fold
same,"inhibition of bacterial protein synthesis, fold greater than tetracycline",[1]; relative to tetracycline,20 fold
same,"apoptosis, percentage of cells labeled by Annexin V",TEX cells,time-dependent increases in apoptosis
same,complex II activity relative to citrate synthase,complex II,less affected
